Three molecules from PubChem BioAssay (NCI) can be followed below.

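Grown in 96-well plates, cells were treated for 48 hours with each compound at five concentrations. Insufficient inhibition: endpoint recorded as highest concentration tested. TGI: total growth inhibition.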

Test systems include 786-0 renal; BT-549 breast; CCRF-CEM leukemia; DU-145 prostate; HCC-2998 colon; HS 578T breast; MCF7 breast; MDA-MB-231 breast; MDA-N; NCI-H226 lung; SF-295 CNS; SK-MEL-5 melanoma; SN12C renal; SNB-19 CNS; SW-620 colon.
Holding throughout (assay): NCI tumour cell line growth inhibition, 48 h

For `Cn1c2ccc([N+](=O)[O-])cc2c(=O)n1Cc1ccccc1F`, the TGI with 786-0 renal is over 100 µM; in the assay with BT-549 breast, over 100 µM; in the assay on CCRF-CEM leukemia it was over 100 µM; with DU-145 prostate it was over 100 µM; in the assay with HCC-2998 colon, over 100 µM; in the assay with HS 578T breast it was 82.8 µM. In addition, the TGI in the assay on MCF7 breast is over 100 µM; in the assay on MDA-MB-231 breast, over 100 µM; in the assay on MDA-N, over 100 µM; in the assay with NCI-H226 lung, 92.4 µM; in the assay on SF-295 CNS, over 100 µM; with SK-MEL-5 melanoma, over 100 µM. Further, the TGI in the assay with SN12C renal, with SNB-19 CNS and in the assay on SW-620 colon was over 100 µM each time.

Turning to `C1=CC2C=CC(C=C1)P2c1ccccc1` (stereo not given), the TGI in the assay with 786-0 renal, in the assay with BT-549 breast, with CCRF-CEM leukemia, with DU-145 prostate, in the assay on HCC-2998 colon and with HS 578T breast was over 100 µM in each case. In addition, the TGI in the assay with MCF7 breast, with MDA-MB-231 breast, in the assay with MDA-N, in the assay on NCI-H226 lung, in the assay on SF-295 CNS and in the assay on SK-MEL-5 melanoma was over 100 µM each time. Besides, the TGI in the assay with SN12C renal, with SNB-19 CNS and with SW-620 colon was over 100 µM in each case.

Turning to `C=C(C)[C@@H]1CCC2=C[C@@H](OC2=O)[C@@H](C(=C)C)C2=CC(C(=O)O)=C(C1)O2`, the TGI in the assay on 786-0 renal, in the assay with BT-549 breast, with CCRF-CEM leukemia, with DU-145 prostate, with HCC-2998 colon and in the assay with HS 578T breast was over 100 µM in each case. Also, the TGI with MCF7 breast, in the assay on MDA-MB-231 breast, in the assay with MDA-N, in the assay with NCI-H226 lung, with SF-295 CNS and with SK-MEL-5 melanoma was over 100 µM each time. In addition, the TGI in the assay with SN12C renal, in the assay on SNB-19 CNS and with SW-620 colon was over 100 µM in each case.
